Results on three compounds are retold here after patent US20140140991A1, “METHODS OF TREATING A DISEASE OR DISORDER ASSOCIATED WITH BRUTON'S TYROSINE KINASE” (Celgene Avilomics Research, Inc., priority 2012, published 2014).

As usually defined, the solubility is the concentration that dissolves in the medium under given conditions.

Series [1] can be described thus: Safety and pharmacokinetics, single dose studies in healthy subjects. The format is in vivo, human.
A further series is described as follows: physchem. Particulars: pH 3, aqueous buffer.
Series [2] in a line: Environmental stability (heat, acid, base). In kind it is physicochemical.
A further series concerns the target Syk (Homo sapiens, UniProt P43405). The conditions noted are these: DLBCL, CLL, and mantle cell lymphoma; cited from earlier work.

Turning to `C=CC(=O)Nc1cccc(Nc2nc(Nc3ccc(OCCOC)cc3)ncc2F)c1` [Compound 1, N-(3-(5-fluoro-2-(4-(2-methoxyethoxy)phenylamino)pyrimidin-4-ylamino)phenyl)acrylamide], in series [1], the “pharmacokinetics (PK)” value is recorded as “predictable pharmacokinetics” and the safety result is reported as “adequate safety”.

In “physchem”, `C=CC(=O)Nc1cccc(Nc2nc(Nc3ccc(OCCOC)cc3)ncc2F)c1.O=S(=O)(O)c1ccccc1` [N-(3-(5-fluoro-2-(4-(2-methoxyethoxy)phenylamino)pyrimidin-4-ylamino)phenyl)acrylamide benzenesulfonic acid salt] came in with a solubility of 400 µg/mL. Moreover, the “environmental instabilities (i.e. heat, acid, base) that require special handling” value in series [2] was “no environmental instabilities”.

Take `COc1cc(Nc2ncc(F)c(Nc3ccc4c(n3)N(COP(=O)(O)O)C(=O)C(C)(C)O4)n2)cc(OC)c1OC` [fostamatinib disodium]: the clinical responses entry on Syk was “produced clinical responses”.
